This is an account of results in ChEMBL document CHEMBL1140752, “High confidence predictions of drug-drug interactions: predicting affinities for cytochrome P450 2C9 with multiple computational methods” (J Med Chem, 2008).

In the assay the target is Cytochrome P450 2C9 (Homo sapiens, UniProt P11712). As to the kind of experiment: Inhibition of CYP2C9. The class given is ADME.
Cytochrome P450 2C9, sequence (P11712 whole entry): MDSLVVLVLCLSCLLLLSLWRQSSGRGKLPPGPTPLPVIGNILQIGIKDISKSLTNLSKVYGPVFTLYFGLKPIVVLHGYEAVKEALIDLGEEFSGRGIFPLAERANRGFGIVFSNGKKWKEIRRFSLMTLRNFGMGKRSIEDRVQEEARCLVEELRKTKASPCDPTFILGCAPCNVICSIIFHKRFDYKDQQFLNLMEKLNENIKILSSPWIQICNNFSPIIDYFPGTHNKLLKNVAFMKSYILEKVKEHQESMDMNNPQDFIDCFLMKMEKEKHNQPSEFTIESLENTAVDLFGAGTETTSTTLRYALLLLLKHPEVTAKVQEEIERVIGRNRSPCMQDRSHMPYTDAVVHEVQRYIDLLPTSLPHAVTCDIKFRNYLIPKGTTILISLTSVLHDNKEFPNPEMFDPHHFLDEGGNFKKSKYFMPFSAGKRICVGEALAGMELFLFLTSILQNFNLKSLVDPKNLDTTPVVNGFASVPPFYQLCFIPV

Usually Ki stands for a measure of affinity in units of concentration, obtained from inhibition or displacement. The molecule `CCc1oc2ccccc2c(=O)c1C(=O)c1cc(Br)c(O)c(Br)c1` yielded a Ki of 101 nM.
